# Data: US10005768B2, “Carboxamide derivatives and use thereof” (Purdue Pharma L.P., priority 2013, dated 2018)
# Target: T1, human Nav1.7 (Homo sapiens (Human), UniProt Q15858)
# Assay: FLIPR sodium dye assay (CoroNa Green AM Na+ dye, primary fluorescence assay)
# Type: cell-based
# Settings: recombinant Nav1.7/HEK293 cells
# Method in brief: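 HEK293 cells stably expressing human Nav1.7 α subunit (no β/γ subunits), loaded with 5 μM CoroNa Green Na+ dye in HEPES-buffered Hanks-type saline, pH 7.3. Na+ influx stimulated by 100 μM veratridine plus 10 μg/mL Leiurus scorpion venom; compounds tested at 20 μM down to 0.001 μM (10 points, 0.2% DMSO).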
# T1 sequence (Q15858 other isoform, or with tags, fused parts or gaps): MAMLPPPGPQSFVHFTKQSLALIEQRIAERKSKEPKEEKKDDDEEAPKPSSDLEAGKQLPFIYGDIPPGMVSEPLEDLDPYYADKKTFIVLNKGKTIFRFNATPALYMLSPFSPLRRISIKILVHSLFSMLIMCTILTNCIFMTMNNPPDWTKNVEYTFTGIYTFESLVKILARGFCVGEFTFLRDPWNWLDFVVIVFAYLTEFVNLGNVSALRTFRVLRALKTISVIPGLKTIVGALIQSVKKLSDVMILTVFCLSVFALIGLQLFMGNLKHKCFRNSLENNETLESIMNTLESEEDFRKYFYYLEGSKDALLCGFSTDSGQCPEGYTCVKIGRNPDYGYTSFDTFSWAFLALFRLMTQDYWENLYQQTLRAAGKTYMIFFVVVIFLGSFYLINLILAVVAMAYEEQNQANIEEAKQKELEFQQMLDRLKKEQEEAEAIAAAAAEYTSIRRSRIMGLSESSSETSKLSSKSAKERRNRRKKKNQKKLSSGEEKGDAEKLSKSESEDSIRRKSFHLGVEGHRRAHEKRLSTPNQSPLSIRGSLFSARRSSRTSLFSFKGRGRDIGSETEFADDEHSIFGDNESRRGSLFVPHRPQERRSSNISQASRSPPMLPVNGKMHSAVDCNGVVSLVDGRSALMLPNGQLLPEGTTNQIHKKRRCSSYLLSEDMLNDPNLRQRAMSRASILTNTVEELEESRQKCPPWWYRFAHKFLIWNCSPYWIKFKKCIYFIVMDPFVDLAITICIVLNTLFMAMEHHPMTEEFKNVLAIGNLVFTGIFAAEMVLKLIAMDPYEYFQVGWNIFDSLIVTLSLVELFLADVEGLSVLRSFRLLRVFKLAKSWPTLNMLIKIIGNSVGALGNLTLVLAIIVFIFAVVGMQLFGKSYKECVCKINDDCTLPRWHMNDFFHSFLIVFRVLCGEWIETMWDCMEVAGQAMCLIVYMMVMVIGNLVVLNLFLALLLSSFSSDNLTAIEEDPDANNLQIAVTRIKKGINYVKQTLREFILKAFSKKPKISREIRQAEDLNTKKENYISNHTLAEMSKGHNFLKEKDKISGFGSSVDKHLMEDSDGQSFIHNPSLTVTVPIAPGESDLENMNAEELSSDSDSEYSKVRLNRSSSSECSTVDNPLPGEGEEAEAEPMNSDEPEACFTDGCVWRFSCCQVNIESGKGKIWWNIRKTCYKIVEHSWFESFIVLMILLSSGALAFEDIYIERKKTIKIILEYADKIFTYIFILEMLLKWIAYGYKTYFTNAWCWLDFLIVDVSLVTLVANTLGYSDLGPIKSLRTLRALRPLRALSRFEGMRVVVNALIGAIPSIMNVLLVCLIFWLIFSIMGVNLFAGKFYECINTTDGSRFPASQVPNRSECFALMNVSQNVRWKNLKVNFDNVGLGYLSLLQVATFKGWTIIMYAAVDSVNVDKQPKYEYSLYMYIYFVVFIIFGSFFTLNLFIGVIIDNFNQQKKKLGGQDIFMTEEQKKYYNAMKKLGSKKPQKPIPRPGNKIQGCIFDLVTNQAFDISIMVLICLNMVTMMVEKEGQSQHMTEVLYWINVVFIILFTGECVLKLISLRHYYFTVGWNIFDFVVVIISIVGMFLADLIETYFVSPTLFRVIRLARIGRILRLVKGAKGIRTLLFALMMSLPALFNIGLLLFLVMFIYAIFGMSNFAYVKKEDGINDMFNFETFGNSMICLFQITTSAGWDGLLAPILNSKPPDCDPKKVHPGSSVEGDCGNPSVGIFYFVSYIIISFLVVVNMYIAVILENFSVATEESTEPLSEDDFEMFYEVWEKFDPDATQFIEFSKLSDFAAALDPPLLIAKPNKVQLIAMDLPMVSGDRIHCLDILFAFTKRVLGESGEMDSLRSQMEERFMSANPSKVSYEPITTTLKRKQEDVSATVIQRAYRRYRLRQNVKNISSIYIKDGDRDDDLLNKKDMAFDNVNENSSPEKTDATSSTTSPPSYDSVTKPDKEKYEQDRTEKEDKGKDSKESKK
row,Structure (SMILES),IC50 [µM]
1,"CCN(CC)C(=O)c1cc(C(F)(F)F)ccc1Oc1ccc(-c2cccc(C(N)=O)n2)cc1 [compound 164, 6-(4-(2-(diethylcarbamoyl)-4-(trifluoromethyl)phenoxy)phenyl) picolinamide]",0.143 ± 0.023
2,"NC(=O)c1cccc(-c2ccc(Oc3ccc(C(F)(F)F)cc3C(=O)N3CCNC(=O)C3)cc2)n1 [compound 165, 6-(4-(2-(3-oxopiperazine-1-carbonyl)-4-(trifluoromethyl)-phenoxy)phenyl)picolinamide]",> 20

# Target: T1, human Nav1.7
# Assay: FLIPR membrane potential dye assay (alternative fluorescence assay)
# Type: cell-based
# Settings: recombinant Nav1.7/HEK293 cells
# Protocol: In vitro assays were performed in a recombinant cell line expressing cDNA encoding the alpha subunit (Nav1.7, SCN9a, PN1, NE) of human Nav1.7 (Accession No. NM_002977). The cell line was provided by investigators at Yale University (Cummins et al, J. Neurosci. 18(23): 9607-9619 (1998)). For dominant selection of the Nav1.7-expressing clones, the expression plasmid co-expressed the neomycin resistance gene. The cell line was constructed in the human embryonic kidney cell line, HEK293, under the influence of the CMV […] promoter, and stable clones were selected using limiting dilution cloning and antibiotic selection using the neomycin analogue, G418. Recombinant beta and gamma subunits were not introduced into this cell line. Additional cell lines expressing recombinant Nav1.7 cloned from other species can also be used, alone or in combination with various beta subunits, gamma subunits or chaperones.
# A fluorescence indicator that can be used in alternative fluorescence assays is the blue version membrane potential dye (MDS, Molecular Devices, Sunnyvale, Calif.), a dye that detects changes in molecules following a change in membrane potential. An increase in fluorescence is expected if agonist stimulation provokes a change in membrane potential. Cells expressing Nav1.7 or other sodium channels are incubated with the membrane potential dye 30-60 minutes before the fluorescence assay. In the case of the KCl pre-stimulation version of the assay, the dye and all other components are washed out immediately before the assay, and the dye is then replaced. In the version lacking KCl pre-stimulation, the dye remains on the cells and is not washed out or replaced. The dye is stored in the dark as a lyophilized powder, and then an aliquot dissolved in assay buffer to form a 20×-concentrated stock solution that can be used for several weeks.
# In the fluorescence assays, two agonists were used in combination, namely 1) veratridine; and 2) the venom from the yellow scorpion, Leiurus quinquestriatus hebraeus. Veratridine is an alkaloid small molecule that facilitates the capture of channel openings by inhibiting inactivation, and the scorpion venom is a natural preparation that includes peptide toxins selective for different subsets of voltage-gated sodium channels. These scorpion toxins inhibit the fast inactivation of their cognate target channels. Stock solutions of the agonists were prepared to 40 mM in DMSO (veratridine) and 1 mg/mL in dH2O (scorpion venom), and then diluted to make a 4× or 2× stock (depending on the particular assay) in assay buffer, the final concentration being 100 μM (veratridine) and 10 μg/mL (scorpion venom). Both of the agonists were purchased from Sigma Aldrich, St. Louis, Mo.
# Test compounds were dissolved in DMSO to yield 10 mM stock solutions. The stock solutions were further diluted using DMSO in 1:3 serial dilution steps with 10 points (10,000 μM, […], 370 μM, 123 μM, 41 μM, 14 μM, 4.6 μM, 1.5 μM and 0.5 μM). The stock solutions were further diluted in assay buffer (1:125) as 4× stock serial dilutions with a DMSO concentration of 0.8% (final [DMSO], in the assay, from the compounds component=0.2%), so that the compounds' final concentrations in the assay were 20 μM, 6.7 μM, 2.2 μM, 0.74 μM, 0.25 μM and 0.08 μM, 0.03 μM, 0.01 μM, 0.003 μM and 0.001 μM. If a particular test article appeared to be especially potent, then the concentration curve was adjusted, e.g., to 10-fold lower concentrations, in order to perform the dose-response in a more relevant concentration range. Compound dilutions were added during the dye-loading and pre-stimulation step, and then again during the fluorescence assay, early in the kinetic read.
# The data were analyzed according to methods known to those skilled in the art or using the GraphPad® Prism Program, version 4.0 or higher (available from GraphPad Software, San Diego, Calif.) to determine the IC50 value for the test article. […]
row,Structure (SMILES),IC50 [µM]
1,"Cn1nccc1-c1cc(C(F)(F)F)ccc1Oc1ccc(-c2nc(C(N)=O)cc([C@H](O)CO)n2)cc1 [compound 122, (S)-6-(1,2-dihydroxyethyl)-2-(4-(2-(1-methyl-1H-pyrazol-5-yl)-4-(trifluoromethyl)phenoxy)phenyl) pyrimidine-4-carboxamide]",0.079 ± 0.015
2,"Cn1nccc1-c1cc(C(F)(F)F)ccc1Oc1ccc(-c2cccc(C(N)=O)n2)cc1 [compound 123, 6-(4-(2-(1-methyl-1H-pyrazol-5-yl)-4-(trifluoromethyl)phenoxy)phenyl) picolinamide]",0.149 ± 0.056
3,"CCN(CC)Cc1cc(C(F)(F)F)ccc1Oc1ccc(-c2nc(CCOC(C)=O)cc(C(N)=O)n2)cc1 [compound 124, 2-(6-carbmoyl-2-(4-(2-((diethylamino)methyl)-4-(trifluoromethyl)phenoxy)phenyl)pyrimidin-4-yl)ethyl acetate]",0.367 ± 0.028
4,"Cn1nccc1-c1cc(C(F)(F)F)ccc1Oc1ccc(-c2nccc(C(N)=O)n2)cc1 [compound 125, 2-(4-(2-(1-methyl-1H-pyrazol-5-yl)-4-(trifluoromethyl)phenoxy)phenyl) pyrimidine-4-carboxamide]",0.311 ± 0.006
5,"Cn1nccc1-c1cc(C(F)(F)F)ccc1Oc1ccc(-c2nc(N[C@H]3CCNC3=O)cc(C(N)=O)n2)cc1 [compound 126, (S)-2-(4-(2-(1-methyl-1H-pyrazol-5-yl)-4-(trifluoromethyl)phenoxy)phenyl)-6-((2-oxopyrrolidin-3-yl)amino)pyrimidine-4-carboxamide]",0.288 ± 0.045
6,"NC(=O)c1cc(CCn2ccnc2)nc(-c2ccc(Oc3ccc(C(F)(F)F)cc3CN3CCOCC3)cc2)n1 [compound 127, 6-(2-(1H-imidazol-1-yl)ethyl)-2-(4-(2-(morpholinomethyl)-4-(trifluoromethyl)phenoxy)phenyl) pyrimidine-4-carboxamide]",0.486 ± 0.032
7,"CN(C)c1ncc(-c2cc(C(F)(F)F)ccc2Oc2ccc(-c3nc(N[C@H]4CCNC4=O)cc(C(N)=O)n3)cc2)cn1 [compound 128, (S)-2-(4-(2-(2-(dimethylamino)pyrimidin-5-yl)-4-(trifluoromethyl)phenoxy)phenyl)-6-((2-oxopyrrolidin-3-yl)amino)pyrimidine-4-carboxamide]",0.684 ± 0.034
8,"CN(C)c1cnc(-c2cc(C(F)(F)F)ccc2Oc2ccc(-c3nc(N[C@H]4CCNC4=O)cc(C(N)=O)n3)cc2)cn1 [compound 129, (S)-2-(4-(2-(5-(dimethylamino)pyrazin-2-yl)-4-(trifluoromethyl)phenoxy)phenyl)-6-((2-oxopyrrolidin-3-yl)amino)pyrimidine-4-carboxamide]",0.702 ± 0.035
9,"CCN(CC)Cc1cc(C(F)(F)F)ccc1Oc1ccc(-c2nc(C(N)=O)cc([C@H](O)CO)n2)cc1 [compound 130, (S)-2-(4-(2-((diethylamino)methyl)-4-(trifluoromethyl)phenoxy)phenyl)-6-(1,2-dihydroxyethyl)pyrimidine-4-carboxamide]",1.28 ± 0.135
10,"CCN(CC)Cc1cc(C(F)(F)F)ccc1Oc1ccc(-c2nc(C(N)=O)cc(C(=O)O)n2)cc1 [compound 131, 6-carbamoyl-2-(4-(2-((diethylamino)methyl)-4-(trifluoromethyl)phenoxy)phenyl) pyrimidine-4-carboxylic acid]",> 20
11,"NC(=O)c1cc(C(=O)O)nc(-c2ccc(Oc3ccc(C(F)(F)F)cc3CN3CCOCC3)cc2)n1 [compound 132, 6-carbamoyl-2-(4-(2-(morpholinomethyl)-4-(trifluoromethyl)phenoxy)phenyl) pyrimidine-4-carboxylic acid]",9.8 ± 0.365
12,"CCN(CC)Cc1cc(C(F)(F)F)ccc1Oc1ccc(-c2nc(C(N)=O)cc([C@@H](O)CO)n2)cc1 [compound 133, (R)-2-(4-(2-((diethylamino)methyl)-4-(trifluoromethyl)phenoxy)phenyl)-6-(1,2-dihydroxyethyl)pyrimidine-4-carboxamide]",0.699 ± 0.045
13,"C[C@H](Nc1cc(C(N)=O)nc(-c2ccc(Oc3ccc(C(F)(F)F)cc3-c3cnc(N(C)C)cn3)cc2)n1)C(N)=O [compound 134, (S)-6-((1-amino-1-oxopropan-2-yl)amino)-2-(4-(2-(5-(dimethylamino)pyrazin-2-yl)-4-(trifluoromethyl)phenoxy)phenyl) pyrimidine-4-carboxamide]",0.393 ± 0.048
14,"Cn1nccc1-c1cc(C(F)(F)F)ccc1Oc1ccc(-c2cc([C@H](O)CO)cc(C(N)=O)n2)cc1 [compound 135, (S)-4-(1,2-dihydroxythyl)-6-(4-(2-(1-methyl-1H-pyrazol-5-yl)-4-(trifluoromethyl)phenoxy)phenyl) picolinamide]",0.294 ± 0.054
15,"NC(=O)c1cc([C@H](O)CO)cc(-c2ccc(Oc3ccc(Cl)cc3-c3ccnn3C3CNC3)cc2)n1 [compound 136, (S)-6-(4-(2-(1-(azetidin-3-yl)-1H-pyrazol-5-yl)-4-chlorophenoxy)phenyl)-4-(1,2-dihydroxyethyl)picolinamide]",> 20
16,"NC(=O)c1cc(N[C@H]2CCNC2=O)nc(-c2ccc(Oc3ccc(Cl)cc3-c3ccnn3C3CNC3)cc2)n1 [compound 137, (S)-2-(4-(2-(1-(azetidin-3-yl)-1H-pyrazol-5-yl)-4-chlorophenoxy)phenyl)-6-((2-oxopyrrolidin-3-yl)amino)pyrimidine-4-carboxamide]",> 20
17,"C[C@H](Nc1cc(C(N)=O)nc(-c2ccc(Oc3ccc(C(F)(F)F)cc3-c3ccnn3C)cc2)n1)C(N)=O [compound 138, (S)-6-((1-amino-1-oxopropan-2-yl)amino)-2-(4-(2-(1-methyl-1H-pyrazol-5-yl)-4-(trifluoromethyl)phenoxy)phenyl) pyrimidine-4-carboxamide]",0.6 ± 0.077
18,"C[C@H](Nc1cc(C(N)=O)nc(-c2ccc(Oc3ccccc3-c3ccnn3C)cc2)n1)C(N)=O [compound 139, (S)-6-((1-amino-1-oxopropan-2-yl)amino)-2-(4-(2-(1-methyl-1H-pyrazol-5-yl)phenoxy)phenyl)-pyrimidine-4-carboxamide]",10 to 20
19,"C[C@H](Nc1cc(C(N)=O)nc(-c2ccc(Oc3ccccc3-c3ccnn3C)cc2)n1)C(N)=O [compound 140, (S)-6-((1-amino-1-oxopropan-2-yl)amino)-2-(4-(2-(1-methyl-1H-pyrazol-5-yl)phenoxy)phenyl)-pyrimidine-4-carboxamide]",4.23 ± 0.479
20,"Cn1nccc1-c1cc(Cl)ccc1Oc1ccc(-c2nc(N[C@H]3CCNC3=O)cc(C(N)=O)n2)cc1 [compound 141, (S)-2-(4-(4-chloro-2-(1-methyl-1H-pyrazol-5-yl)phenoxy)phenyl)-6-((2-oxopyrrolidin-3-yl)amino)-pyrimidine-4-carboxamide]",0.45 ± 0.053
21,"O=C(NC[C@@H](O)CO)c1cc(C(F)(F)F)ccc1Oc1ccc(-c2cccc([C@H](O)CO)n2)cc1 [compound 167, 2-(4-(6-((S)-1,2-dihydroxyethyl)pyridin-2-yl)phenoxy)-N-((R)-2,3-dihydroxypropyl)-5-(trifluoromethyl)benzamide]",> 20
